The NIST ThermoML archive (doi:10.1021/acs.jced.6b00470)
Numbers after ± are expanded uncertainties.

What was measured:
[1] = refractive index (other wavelength) (dimensionless); conditions: 100 kPa, Liquid, Standard Abbe refractometry
[2] = Liquid; for mass density / viscosity: 101.33 kPa; for mass density: Vibrating tube method; for viscosity: Vibrating wire viscometry; for vapor or sublimation pressure: Ebulliometric method (Recirculating still)

COC(=O)c1ccc(C(C)(C)C)cc1 [methyl 4-tert-butylbenzoate]
refractive index, [1]
Conditions | Wavelength=404.7 nm | Wavelength=435.8 nm | Wavelength=486.1 nm | Wavelength=546.1 nm | Wavelength=587.6 nm | Wavelength=589.3 nm | Wavelength=632.8 nm | Wavelength=644 nm | Wavelength=706.5 nm
293.15 K | 1.53993 ± 0.00056 | 1.53137 ± 0.00054 | 1.52182 ± 0.00052 | 1.51423 ± 0.0005 | 1.51053 ± 0.0005 | 1.51039 ± 0.0005 | 1.50735 ± 0.0005 | 1.50663 ± 0.0005 | 1.50334 ± 0.00049
298.15 K | 1.53745 ± 0.00056 | 1.52893 ± 0.00054 | 1.51944 ± 0.00051 | 1.51188 ± 0.0005 | 1.5082 ± 0.0005 | 1.50807 ± 0.00049 | 1.50504 ± 0.0005 | 1.50433 ± 0.0005 | 1.50105 ± 0.00049
303.15 K | 1.5352 ± 0.00056 | 1.52672 ± 0.00054 | 1.51725 ± 0.00051 | 1.50975 ± 0.0005 | 1.50608 ± 0.00049 | 1.50595 ± 0.0005 | 1.50293 ± 0.0005 | 1.50222 ± 0.0005 | 1.49897 ± 0.00049
308.15 K | 1.53292 ± 0.00056 | 1.52448 ± 0.00054 | 1.51505 ± 0.00051 | 1.50756 ± 0.0005 | 1.50382 ± 0.00051 | 1.50368 ± 0.00049 | 1.50107 ± 0.0005 | 1.50004 ± 0.0005 | 1.49686 ± 0.00049
313.15 K | 1.5307 ± 0.00056 | 1.52231 ± 0.00054 | 1.5129 ± 0.00051 | 1.50548 ± 0.0005 | 1.50185 ± 0.00049 | 1.50172 ± 0.0005 | 1.49872 ± 0.0005 | 1.49802 ± 0.0005 | 1.49479 ± 0.00049
318.15 K | 1.52841 ± 0.00056 | 1.52004 ± 0.00054 | 1.5107 ± 0.00051 | 1.50329 ± 0.0005 | 1.4997 ± 0.0005 | 1.49957 ± 0.0005 | 1.49659 ± 0.0005 | 1.49589 ± 0.0005 | 1.49268 ± 0.00049
323.15 K | 1.52614 ± 0.00056 | 1.5178 ± 0.0005 | 1.50849 ± 0.00051 | 1.50112 ± 0.0005 | 1.49755 ± 0.0005 | 1.49742 ± 0.0005 | 1.49445 ± 0.0005 | 1.49375 ± 0.0005 | 1.49056 ± 0.00049
328.15 K | 1.52383 ± 0.00056 | 1.51554 ± 0.00053 | 1.50627 ± 0.00051 | 1.49894 ± 0.0005 | 1.49537 ± 0.0005 | 1.49525 ± 0.0005 | 1.49225 ± 0.0005 | 1.49161 ± 0.00049 | 1.48842 ± 0.00049
333.15 K | 1.52158 ± 0.00056 | 1.51332 ± 0.00053 | 1.50407 ± 0.00051 | 1.49678 ± 0.0005 | 1.49326 ± 0.00049 | 1.49314 ± 0.0005 | 1.4902 ± 0.0005 | 1.4895 ± 0.0005 | 1.48634 ± 0.00049
338.15 K | 1.51926 ± 0.00056 | 1.51104 ± 0.00053 | 1.50186 ± 0.00051 | 1.4946 ± 0.0005 | 1.49108 ± 0.0005 | 1.49096 ± 0.0005 | 1.48801 ± 0.0005 | 1.48735 ± 0.0005 | 1.48419 ± 0.00049
343.15 K | 1.51699 ± 0.00056 | 1.50881 ± 0.00053 | 1.49967 ± 0.00051 | 1.49246 ± 0.0005 | 1.48895 ± 0.0005 | 1.48883 ± 0.0005 | 1.48591 ± 0.0005 | 1.48523 ± 0.0005 | 1.48208 ± 0.00049
348.15 K | 1.5147 ± 0.00056 | 1.50655 ± 0.00053 | 1.49745 ± 0.00051 | 1.49026 ± 0.0005 | 1.48678 ± 0.0005 | 1.48667 ± 0.0005 | 1.48376 ± 0.0005 | 1.48309 ± 0.0005 | 1.47995 ± 0.00049
353.15 K | 1.51239 ± 0.00056 | 1.50427 ± 0.00053 | 1.49523 ± 0.00051 | 1.48807 ± 0.0005 | 1.48461 ± 0.0005 | 1.48449 ± 0.0005 | 1.48162 ± 0.0005 | 1.48094 ± 0.0005 | 1.47781 ± 0.00049

[2]
Conditions | mass density [kg/m3] | vapor or sublimation pressure [kPa] | viscosity [mPa·s]
293.15 K | 1008.55 ± 1.5 | – | 6.867 ± 0.36
298.15 K | 1004.06 ± 1.5 | – | 5.867 ± 0.35
303.15 K | 999.54 ± 1.5 | – | 5.013 ± 0.34
308.15 K | 994.01 ± 1.5 | – | 4.291 ± 0.33
313.15 K | 989.09 ± 1.5 | – | 3.687 ± 0.32
318.15 K | 983.89 ± 1.5 | – | 3.188 ± 0.31
323.15 K | 979.29 ± 1.5 | – | 2.781 ± 0.31
328.15 K | 974.01 ± 1.5 | – | 2.451 ± 0.31
333.15 K | 969.29 ± 1.5 | – | 2.185 ± 0.3
338.15 K | 964.47 ± 1.5 | – | 1.969 ± 0.3
343.15 K | 959.5 ± 1.5 | – | 1.79 ± 0.3
348.15 K | 954.38 ± 1.5 | – | 1.634 ± 0.3
353.15 K | 948.71 ± 1.5 | – | 1.487 ± 0.3
398.3 K | – | 1.21 ± 0.41 | –
408.4 K | – | 1.89 ± 0.41 | –
411.3 K | – | 2.13 ± 0.41 | –
421.3 K | – | 3.19 ± 0.42 | –
430.4 K | – | 4.51 ± 0.43 | –
434.9 K | – | 5.32 ± 0.45 | –
440.6 K | – | 6.53 ± 0.46 | –
446.1 K | – | 7.93 ± 0.48 | –
448.2 K | – | 8.53 ± 0.51 | –
452.4 K | – | 9.87 ± 0.52 | –
454.3 K | – | 10.53 ± 0.54 | –
457.2 K | – | 11.6 ± 0.56 | –
459.7 K | – | 12.61 ± 0.58 | –
462.6 K | – | 13.87 ± 0.6 | –
464.3 K | – | 14.67 ± 0.63 | –
466.3 K | – | 15.67 ± 0.66 | –
467.2 K | – | 16.13 ± 0.66 | –
470.7 K | – | 18 ± 0.69 | –
473.6 K | – | 19.73 ± 0.73 | –
475.1 K | – | 20.67 ± 0.77 | –
477.9 K | – | 22.53 ± 0.8 | –
480.1 K | – | 24.13 ± 0.84 | –
482.4 K | – | 25.87 ± 0.88 | –
483.3 K | – | 26.53 ± 0.87 | –
484.9 K | – | 27.88 ± 0.93 | –
486.4 K | – | 29.13 ± 0.93 | –
487.9 K | – | 30.4 ± 0.97 | –
489.5 K | – | 31.86 ± 1 | –
490.6 K | – | 32.93 ± 1 | –
492.4 K | – | 34.66 ± 1 | –
